These results are taken from paper PMC5382548 (Scientific Reports, 2015).

The subject of assay [1] is KRAS mRNA in SW620 cells. Description: KRAS mRNA steady-state levels, Taqman real-time RT-PCR, SW620. The class given is cell-based, human. The following applies: equitoxic (IC50) concentrations, 72 h. The method, then:
The effects of compounds on KRAS transcription in colon cancer cells (HCT116 and SW620) were evaluated by quantifying KRAS mRNA steady-state levels using Taqman real-time RT-PCR.
(a) KRAS mRNA steady-state expression was evaluated by Taqman Real-time RT-PCR using specific Taqman Assays for KRAS and β-Actin for normalization. KRAS mRNA steady-state expression levels were calculated by the ΔΔCt method, using DMSO (vehicle control) for calibration; and (b) KRAS protein steady-state expression evaluated by immunoblot relative to control (DMSO vehicle) Results are expressed as mean ± SEM of at least three independent experiments; *p < 0.05 and §p < 0.01 from DMSO (vehicle control). […]
Taqman Real-time PCR reactions were performed using 1.5 µg of total RNA, using High Capacity RNA to cDNA kit, according to the manufacturer`s instruction. […] The comparative threshold cycle method was used to calculate the amplification factor, where the threshold cycle (Ct) is defined as the cycle number at which the fluorescence passes the fixed threshold intensity level. KRAS expression levels in different samples were calculated on the basis of ΔΔCt method. […]
Hoechst labeling of cells was used to detect apoptotic nuclei by evaluation of nuclear morphology under fluorescence microscopy. […] Fluorescent nuclei were scored and categorized according to the condensation and staining characteristics of […]

Assay [2] has as its system SW620 metastatic colon cancer cells. The assay can be described thus: Guava ViaCount assay, SW620. The class given is cell-based, human. To be noted: IC65 concentration, 72 h. An excerpt:
The ability of IQcs to induce cell death in colon cancer cell lines with different genotypes (HCT116 and SW620) and in the non-malignant cell line HEK293T was studied by a Guava Via Count assay and compared with the behaviour of 5-FU and TMPyP4 at equitoxic concentrations (IC50 and IC65). Results in Figure 7 show dose-dependent induction of cell death, mainly by apoptosis, by all tested compounds in the HCT116 colon cancer cell line. […] In SW620 metastatic colon cancer cells, cell death induction was highly dependent on the number and position of side chains in IQc compounds. […]
Figure 7 Evaluation of the effect of IQc on cell viability using the ViaCount assay. […] Results are expressed as the mean percentage (%) of viable (white), mid-apoptotic (grey) and dead (black) cells ± SEM, of at least three different experiments, for (a) IC50, and for (b) IC65 compound concentrations. a, p < 0.05; b, p < 0.01 from DMSO (vehicle control); c, p < 0.05; and d, p < 0.01 from 5-FU. […]
Taqman Real-time PCR reactions were performed using 1.5 µg of total RNA, using High Capacity RNA to cDNA kit, according to the manufacturer`s instruction. […] The comparative threshold cycle method was used to calculate the amplification factor, where the threshold cycle (Ct) is defined as the cycle number at which the fluorescence passes the fixed threshold intensity level. […]

For assay [3], the system named is KRAS21R (FRET-labelled) (DNA, G4) AGGGCGGTGTGGGAAGAGGGA
Description: FRET melting. The following applies: 60 mM K+; K-cacodylate pH 7.4; 0.2 μM DNA, 1 μM compound; SD ≤ 0.2.

Assay [4] relates to HT21 (DNA, G4) GGGTTAGGGTAGGGTTAGGG
Description: circular dichroism. To be noted: 60 mM K+; K-cacodylate pH 7.4, 25 °C; hybrid G4 changes to antiparallel.

As for `CCN(CC)CCCNc1ccc2c(c1)c1[nH]c3ccccc3c1c[n+]2C` [2d], the “Reduction of KRAS mRNA steady-state levels, SW620” value in assay [1] was 90%.

On to `CCN(CC)CCCNc1ccc2[nH]c3c(c[n+](C)c4ccc(NCCCN(CC)CC)cc34)c2c1.[Cl-]` [3d], for which the “Reduction of KRAS mRNA steady-state levels, SW620” value in assay [1] was 25%.

With `C[n+]1ccc(-c2c3nc(c(-c4cc[n+](C)cc4)c4ccc([nH]4)c(-c4cc[n+](C)cc4)c4ccc([nH]4)c(-c4cc[n+](C)cc4)c4nc2C=C4)C=C3)cc1` [TMPyP4, reference compound], in assay [2], the “Cell death induced, SW620” value was more than 20%.

For the compound `Cn1cc2c3ccccc3nc-2c2cc(Br)ccc21` [2a, 2-bromo-5-methyl-indolo[3,2-c]quinoline], in assay [3], the binding entry is “weak”.

As to `CCN(CC)CCCNc1ccc2c(c1)[nH]c1c2c[n+](C)c2ccc(NCCCN(CC)CC)cc12.[Cl-]` [3e], the binding entry in assay [4] and in assay [3] was “yes” in each case.
